In US11773391B2, “Therapeutic and diagnostic target for SARS-CoV-2 and COVID-19” (priority 2020, dated 2023):
“Also recorded” adds a separate entry of the source.

Tested on: NCOA7
Format: cell-based, human
Conditions: ECs, FIGS. 3A-3B

SMILES: N#CCNC(=O)c1ccc(-c2ccnc(Nc3ccc(N4CCOCC4)cc3)n2)cc1 [momelotinib, Momelotinib]
- NCOA7 expression (IL-1β-mediated upregulation of NCOA7): abrogated the IL-1β-mediated upregulation of NCOA7; also recorded: attenuates NCOA7 expression
